Reference: ChEMBL document CHEMBL6120948, “Design, Synthesis, and Biological Evaluation of Lysine-Stapled Peptide Inhibitors of p53-MDM2/MDMX Interactions with Potent Antitumor Activity In Vivo” (J Med Chem, 2024)
pIC50: −log10 of the molar value.

Experiments:
MCF7 = assay: Antiproliferative activity against human MCF7 cells expressing wild-type p53 incubated for 72 hrs by MTT assay; type: functional, cell-based; conditions: MCF7, 72 h
[1] = Antiproliferative activity against human U-87 MG cells expressing wild-type p53 incubated for 72 hrs by MTT assay; type: functional, cell-based, U-87MG ATCC
[2] = Induction of alpha-helical conformation in phosphate buffer at pH 7 at 100 uM by CD analysis; type: physicochemical; conditions: pH 7, 100 µM
[3] = Drug distribution in cytoplasm of human HCT-116 cells at 40 uM incubated for 4 hrs by Hoechst 33342/DiD dye based confocal microscopy; type: ADME, subcellular; conditions: hct-116, 4 h
[4] = Drug distribution in nucleus of human HCT-116 cells at 40 uM incubated for 4 hrs by Hoechst 33342/DiD dye based confocal microscopy; type: ADME, subcellular; conditions: hct-116, 4 h

| Compound | pIC50 (MCF7) | Activity [2] | Drug uptake [3] | Drug uptake [4] | pIC50 [1] |
| --- | --- | --- | --- | --- | --- |
| CC(=O)N[C@@H](CC(C)C)C(=O)N[C@H](C(=O)N[C@@H](Cc1ccccc1)C(=O)N[C@H]1CCCCNCc2cccc(c2)CNCCCC[C@@H](C(=O)N[C@@H](CO)C(=O)N[C@@H](C)C(=O)N[C@@H](C)C(N)=O)NC(=O)[C@H](CC(C)C)NC(=O)[C@H](CCC(N)=O)NC(=O)[C@H](C)NC(=O)[C@H](Cc2c[nH]c3ccccc23)NC(=O)[C@H](Cc2ccc(O)cc2)NC(=O)[C@H](Cc2c[nH]cn2)NC1=O)[C@@H](C)O | < 3.80 | 11% |  |  | 4.28 |
| CC(C)C[C@H](NC(=O)CCNC(=O)c1ccc2c(c1)C(=O)OC21c2ccc(O)cc2Oc2cc(O)ccc21)C(=O)N[C@H](C(=O)N[C@@H](Cc1ccccc1)C(=O)N[C@H]1CCCCNCc2cccc(c2)CNCCCC[C@@H](C(=O)N[C@@H](CCC(N)=O)C(=O)N[C@@H](CC(C)C)C(=O)N[C@H](C(=O)N[C@@H](CO)C(=O)N[C@@H](C)C(=O)N[C@@H](C)C(N)=O)[C@@H](C)O)NC(=O)[C@H](Cc2c[nH]c3ccccc23)NC(=O)[C@H](Cc2ccc(O)cc2)NC(=O)[C@H](Cc2c[nH]cn2)NC1=O)[C@@H](C)O |  |  | Active | Active |  |
| CC(=O)N[C@@H](CC(C)C)C(=O)N[C@H](C(=O)N[C@@H](Cc1ccccc1)C(=O)N[C@H]1CCCCNCC#CCNCCCC[C@@H](C(=O)N[C@@H](CO)C(=O)N[C@@H](C)C(=O)N[C@@H](C)C(N)=O)NC(=O)[C@H](CC(C)C)NC(=O)[C@H](CCC(N)=O)NC(=O)[C@H](C)NC(=O)[C@H](Cc2c[nH]c3ccccc23)NC(=O)[C@H](Cc2ccc(O)cc2)NC(=O)[C@H](Cc2c[nH]cn2)NC1=O)[C@@H](C)O | < 3.80 | 11% |  |  | < 3.80 |
| CC(=O)N[C@@H](CC(C)C)C(=O)N[C@H](C(=O)N[C@@H](Cc1ccccc1)C(=O)N[C@H]1CCCCNCc2ccc(cc2)CNCCCC[C@@H](C(=O)N[C@@H](CO)C(=O)N[C@@H](C)C(=O)N[C@@H](C)C(N)=O)NC(=O)[C@H](CC(C)C)NC(=O)[C@H](CCC(N)=O)NC(=O)[C@H](C)NC(=O)[C@H](Cc2c[nH]c3ccccc23)NC(=O)[C@H](Cc2ccc(O)cc2)NC(=O)[C@H](Cc2c[nH]cn2)NC1=O)[C@@H](C)O | < 3.80 | 11% |  |  | < 3.80 |
| Ac-LTFEHYWAQLTS-NH2 |  | 11% |  |  |  |
| CSCC[C@H](NC(=O)[C@H](CC(C)C)NC(=O)[C@H](CCC(N)=O)NC(=O)[C@@H]1CCCCNCc2ccccc2CNCCCC[C@H](NC(=O)[C@H](Cc2ccccc2)NC(=O)[C@@H](NC(=O)[C@H](CC(C)C)NC(C)=O)[C@@H](C)O)C(=O)N[C@@H](CCC(=O)O)C(=O)N[C@@H](Cc2ccc(O)cc2)C(=O)N[C@@H](Cc2c[nH]c3ccccc23)C(=O)N1)C(=O)N[C@@H](CCC(N)=O)C(=O)N[C@@H](C)C(=O)N[C@@H](C)C(N)=O | < 3.80 | 11% |  |  | 3.98 |
| CC(=O)N[C@@H](CC(C)C)C(=O)N[C@H](C(=O)N[C@@H](Cc1ccccc1)C(=O)N[C@H]1CCCCNCc2ccccc2CNCCCC[C@@H](C(=O)N[C@@H](CO)C(=O)N[C@@H](C)C(=O)N[C@@H](C)C(N)=O)NC(=O)[C@H](CC(C)C)NC(=O)[C@H](CCC(N)=O)NC(=O)[C@H](C)NC(=O)[C@H](Cc2c[nH]c3ccccc23)NC(=O)[C@H](Cc2ccc(O)cc2)NC(=O)[C@H](Cc2c[nH]cn2)NC1=O)[C@@H](C)O | < 3.80 | 11% |  |  | < 3.80 |
| CSCC[C@H](NC(=O)[C@H](CC(C)C)NC(=O)[C@H](CCC(N)=O)NC(=O)[C@@H]1CCCCNCc2ccc(cc2)CNCCCC[C@H](NC(=O)[C@H](Cc2ccccc2)NC(=O)[C@@H](NC(=O)[C@H](CC(C)C)NC(=O)CCNC(=O)c2ccc3c(c2)C(=O)OC32c3ccc(O)cc3Oc3cc(O)ccc32)[C@@H](C)O)C(=O)N[C@@H](CCC(=O)O)C(=O)N[C@@H](Cc2ccc(O)cc2)C(=O)N[C@@H](Cc2c[nH]c3ccccc23)C(=O)N1)C(=O)N[C@@H](CCC(N)=O)C(=O)N[C@@H](C)C(=O)N[C@@H](C)C(N)=O |  |  | Not_active |  |  |
| CSCC[C@H](NC(=O)[C@H](CC(C)C)NC(=O)[C@H](CCC(N)=O)NC(=O)[C@@H]1CCCCNCC#CCNCCCC[C@H](NC(=O)[C@H](Cc2ccccc2)NC(=O)[C@@H](NC(=O)[C@H](CC(C)C)NC(C)=O)[C@@H](C)O)C(=O)N[C@@H](CCC(=O)O)C(=O)N[C@@H](Cc2ccc(O)cc2)C(=O)N[C@@H](Cc2c[nH]c3ccccc23)C(=O)N1)C(=O)N[C@@H](CCC(N)=O)C(=O)N[C@@H](C)C(=O)N[C@@H](C)C(N)=O | 3.95 | 11% |  |  | < 3.80 |

More lines, main results first:

| pIC50 (MCF7) | Activity [2] | Drug uptake [3] | Drug uptake [4] | Compound | pIC50 [1] |
| --- | --- | --- | --- | --- | --- |
| < 3.80 | 11% |  |  | CSCC[C@H](NC(=O)[C@H](CC(C)C)NC(=O)[C@H](CCC(N)=O)NC(=O)[C@@H]1CCCCNCc2cccc(c2)CNCCCC[C@H](NC(=O)[C@H](Cc2ccccc2)NC(=O)[C@@H](NC(=O)[C@H](CC(C)C)NC(C)=O)[C@@H](C)O)C(=O)N[C@@H](CCC(=O)O)C(=O)N[C@@H](Cc2ccc(O)cc2)C(=O)N[C@@H](Cc2c[nH]c3ccccc23)C(=O)N1)C(=O)N[C@@H](CCC(N)=O)C(=O)N[C@@H](C)C(=O)N[C@@H](C)C(N)=O | 4.66 |
| 5.16 | 11% |  |  | CC(=O)N[C@@H](CC(C)C)C(=O)N[C@H](C(=O)N[C@@H](Cc1ccccc1)C(=O)N[C@@H](CCC(=O)O)C(=O)N[C@H]1CCCCNCc2ccc(cc2)CNCCCC[C@@H](C(=O)N[C@@H](CC(C)C)C(=O)N[C@H](C(=O)N[C@@H](CO)C(=O)N[C@@H](C)C(=O)N[C@@H](C)C(N)=O)[C@@H](C)O)NC(=O)[C@H](C)NC(=O)[C@H](Cc2c[nH]c3ccccc23)NC(=O)[C@H](Cc2ccc(O)cc2)NC1=O)[C@@H](C)O | < 3.80 |
| 4.95 | 11% |  |  | CC(=O)N[C@@H](CC(C)C)C(=O)N[C@H](C(=O)N[C@@H](Cc1ccccc1)C(=O)N[C@H]1CCCCNCc2ccccc2CNCCCC[C@@H](C(=O)N[C@@H](CCC(N)=O)C(=O)N[C@@H](CC(C)C)C(=O)N[C@H](C(=O)N[C@@H](CO)C(=O)N[C@@H](C)C(=O)N[C@@H](C)C(N)=O)[C@@H](C)O)NC(=O)[C@H](Cc2c[nH]c3ccccc23)NC(=O)[C@H](Cc2ccc(O)cc2)NC(=O)[C@H](Cc2c[nH]cn2)NC1=O)[C@@H](C)O | < 3.80 |
| < 3.80 | 11% |  |  | CC(=O)N[C@@H](CC(C)C)C(=O)N[C@H](C(=O)N[C@@H](Cc1ccccc1)C(=O)N[C@H]1CCCCNCc2ccc(cc2)CNCCCC[C@@H](C(=O)N[C@@H](CCC(N)=O)C(=O)N[C@@H](CC(C)C)C(=O)N[C@H](C(=O)N[C@@H](CO)C(=O)N[C@@H](C)C(=O)N[C@@H](C)C(N)=O)[C@@H](C)O)NC(=O)[C@H](Cc2c[nH]c3ccccc23)NC(=O)[C@H](Cc2ccc(O)cc2)NC(=O)[C@H](Cc2c[nH]cn2)NC1=O)[C@@H](C)O | < 3.80 |
| < 3.80 | 11% |  |  | CC(=O)N[C@@H](CC(C)C)C(=O)N[C@H](C(=O)N[C@@H](Cc1ccccc1)C(=O)N[C@@H](CCC(=O)O)C(=O)N[C@H]1CCCCNCc2cccc(c2)CNCCCC[C@@H](C(=O)N[C@@H](CC(C)C)C(=O)N[C@H](C(=O)N[C@@H](CO)C(=O)N[C@@H](C)C(=O)N[C@@H](C)C(N)=O)[C@@H](C)O)NC(=O)[C@H](C)NC(=O)[C@H](Cc2c[nH]c3ccccc23)NC(=O)[C@H](Cc2ccc(O)cc2)NC1=O)[C@@H](C)O | 3.86 |
| < 3.80 | 11% |  |  | CC(=O)N[C@@H](CC(C)C)C(=O)N[C@H](C(=O)N[C@@H](Cc1ccccc1)C(=O)N[C@H]1CCCCNCC#CCNCCCC[C@@H](C(=O)N[C@@H](CCC(N)=O)C(=O)N[C@@H](CC(C)C)C(=O)N[C@H](C(=O)N[C@@H](CO)C(=O)N[C@@H](C)C(=O)N[C@@H](C)C(N)=O)[C@@H](C)O)NC(=O)[C@H](Cc2c[nH]c3ccccc23)NC(=O)[C@H](Cc2ccc(O)cc2)NC(=O)[C@H](Cc2c[nH]cn2)NC1=O)[C@@H](C)O | < 3.80 |
| 3.84 | 11% |  |  | CC(=O)N[C@@H](CC(C)C)C(=O)N[C@H](C(=O)N[C@@H](Cc1ccccc1)C(=O)N[C@@H](CCC(=O)O)C(=O)N[C@H]1CCCCNCc2ccccc2CNCCCC[C@@H](C(=O)N[C@@H](CC(C)C)C(=O)N[C@H](C(=O)N[C@@H](CO)C(=O)N[C@@H](C)C(=O)N[C@@H](C)C(N)=O)[C@@H](C)O)NC(=O)[C@H](C)NC(=O)[C@H](Cc2c[nH]c3ccccc23)NC(=O)[C@H](Cc2ccc(O)cc2)NC1=O)[C@@H](C)O | < 3.80 |
| 4.70 | 11% |  |  | CC(=O)N[C@@H](CC(C)C)C(=O)N[C@H](C(=O)N[C@@H](Cc1ccccc1)C(=O)N[C@@H](CCC(=O)O)C(=O)N[C@H]1CCCCNCC#CCNCCCC[C@@H](C(=O)N[C@@H](CC(C)C)C(=O)N[C@H](C(=O)N[C@@H](CO)C(=O)N[C@@H](C)C(=O)N[C@@H](C)C(N)=O)[C@@H](C)O)NC(=O)[C@H](C)NC(=O)[C@H](Cc2c[nH]c3ccccc23)NC(=O)[C@H](Cc2ccc(O)cc2)NC1=O)[C@@H](C)O | < 3.80 |
